From patent US8067435B2, “Nitrogen-containing heterocyclic compounds, their preparation and their use as antibacterial drugs” (AstraZeneca AB, priority 2008, dated 2011)
Values after ≈ are worked out from the molar mass of the structure shown.

System: Pseudomonas aeruginosa (1771 Strain of the wild type)
Experiment: Activity in vitro, method of dilutions in a liquid medium (MIC)
Type: cell-based
Conditions: Pseudomonas aeruginosa 1771 wild type, liquid medium dilution, 24 hrs incubation at 37° C.; for MIC: read-out: MIC (μg/mL) 24 h (P, aerug, 1771)
Procedure: Activity in vitro, method of dilutions in a liquid medium: A series of tubes is prepared in which the same amount of sterile nutritive medium is distributed, increasing amounts of the product to be studied are distributed in each tube, and each tube is then sown with a bacterial strain. After incubation for 24 hrs in the oven at 37° C., inhibition of growth is appreciated by trans-illumination, which allows determination of the minimum inhibitory concentrations (MICs) expressed in μg/ml.
Thus tests are carried out with the products of Examples 1 to 8 in comparison with products of Examples 7, 9, 11 and 45 of application WO 04/052891. […] The activity difference on Pseudomonas aeruginosa between the products of the invention and the closest products from the prior art is located according to the products in a range from 16 to more than 500.
Activity on Pseudomonas aeruginosa (1771 Strain of the wild type)

MIC	Compound	MIC (μg/mL) 24 h (P, aerug, 1771)
	NC[C@@H]1c2nn(C(N)=O)cc2[C@H]2CN1C(=O)N2OS(=O)(=O)O.O=C([O-])C(F)(F)F.[Na+] (relative stereo) [Ex 1, Sodium trifluoroacetate salt of trans 8-(aminomethyl)-2-carbamoyle-4,8-dihydro-5-(sulfooxy)-4,7-methano-7H-pyrazolo[3,4-e][1,3]diazepin-6(5H)-one]	0.25 µg/mL
	CN(C)C(=O)n1cc2c(n1)[C@@H](CN)N1C[C@H]2N(OS(=O)(=O)O)C1=O.O=C([O-])C(F)(F)F.[Na+] (relative stereo) [Ex 2, Sodium trifluoroacetate salt of trans 8-(aminomethyl)-2-dimethylcarbamoyle-4,8-dihydro-5-(sulfooxy)-4,7-methano-7H-pyrazolo[3,4-e][1,3]diazepin-6(5H)-one]	2 µg/mL
	CNC(=O)n1cc2c(n1)[C@@H](CN)N1C[C@H]2N(OS(=O)(=O)O)C1=O.O=C([O-])C(F)(F)F.[Na+] (relative stereo) [Ex 3, Sodium trifluoroacetate salt of trans 8-(aminomethyl)-2-methylcarbamoyl-4,8-dihydro-5-(sulfooxy)-4,7-methano-7H-pyrazolo[3,4-e][1,3]diazepin-6(5H)-one]	2 µg/mL
	NCCn1ncc2c1[C@@H](CN)N1C[C@H]2N(OS(=O)(=O)O)C1=O.O=C([O-])C(F)(F)F.[Na+] (relative stereo) [Ex 4, Sodium trifluoroacetate salt of trans 8-(aminomethyl)-1-(2-amino-ethyl)-4,8-dihydro-5-(sulfooxy)-4,7-methano-7H-pyrazolo[3,4-e][1,3]diazepin-6(5H)-one]	0.25 µg/mL
	NCCn1cc2c(n1)[C@@H](CN)N1C[C@H]2N(OS(=O)(=O)O)C1=O.O=C([O-])C(F)(F)F.[Na+] (relative stereo) [Ex 5, Sodium trifluoroacetate salt of trans 8-(aminomethyl)-2-(2-amino-ethyl)-4,8-dihydro-5-(sulfooxy)-4,7-methano-7H-pyrazolo[3,4-e][1,3]diazepin-6(5H)-one]	0.25 µg/mL
	NC[C@@H]1c2nn(-c3ccccn3)cc2[C@H]2CN1C(=O)N2OS(=O)(=O)O.O=C([O-])C(F)(F)F.[Na+] (relative stereo) [Ex 6, Sodium trifluoroacetate salt of trans 8-(aminomethyl)-2-(2-pyridinyl)-4,8-dihydro-5-(sulfooxy)-4,7-methano-7H-pyrazolo[3,4-e][1,3]diazepin-6(5H)-one]	8 µg/mL
	NC[C@@H]1c2nn(CC(=O)O)cc2[C@H]2CN1C(=O)N2OS(=O)(=O)O.O=C([O-])C(F)(F)F.[Na+] (relative stereo) [Ex 7, Sodium trifluoroacetate salt of trans-8-(aminomethyl)-5,6-dihydro-6-oxo-5-(sulfooxy)-4H-4,7-methanopyrazolo[3,4-e][1,3]diazepin-2(8H)-acetic acid]	4 µg/mL
	NC[C@@H]1c2nn(CC(N)=O)cc2[C@H]2CN1C(=O)N2OS(=O)(=O)O.O=C([O-])C(F)(F)F.[Na+] (relative stereo) [Ex 8, Sodium trifluoroacetate salt of trans-8-(aminomethyl)-5,6-dihydro-6-oxo-5-(sulfooxy)-4H-4,7-methanopyrazolo[3,4-e][1,3]diazepin-2(8H)-acetamide]	0.5 µg/mL
1 µg/mL (≈ 1.83 µM)	CC(C)(O/N=C(\C(=O)N[C@@H]1C(=O)N2C(C(=O)[O-])=C(C[n+]3ccccc3)CS[C@H]12)c1csc(N)n1)C(=O)O [CAZ, Ceftazidime, reference compound]	
1 µg/mL (≈ 3.34 µM)	C[C@@H](O)[C@H]1C(=O)N2C(C(=O)O)=C(SCCN=CN)C[C@H]12 [IMP, Imipenem, reference compound]	
